Experiments:
Conditions in all cases: 25 µM pACP, 24 h, maintenance medium 1% FBS, ratio of viability to vehicle (PBS), at least three technical repetitions
MDA-MB-436 = assay: MTT primary screening of anticancer activity, MDA-MB-436; assay type: cell-based
Text: (§1) We successfully chemically synthesized 40 pACPs for the purpose of in vitro or in vivo characterization of their potential anticancer efficacy. In the initial step, we conducted an in vitro primary screen of these 40 pACPs using a panel of 16 different cancer cell lines, including four human CRC lines (HT29, Caco2, HCT116, and […]), as well as 12 other cancer models (Table S4, Supporting Information). We deliberately selected a diverse panel of cell lines to assess the effect of pACPs across various genetic backgrounds. Briefly, the cancer cells were cultured in specific media (details provided in the Experimental Section) and then treated with pACPs at a final concentration of 25 µM. Peptides with minimum effective inhibition concentrations >25 µM were considered non‐ACPs. After exposure to pACPs, the survival rate of the cancer cells was measured using the MTT assay. Remarkably, 39 out of the 40 pACPs (97.5%) induced at least 20% inhibition in at least one cell line (Figure 3a and Table S5, Supporting Information). […] Thus, our method successfully identified pACPs with a very high rate of anticancer effects across various cancer cell lines.
(§2) To evaluate the activity of the 40 potentially effective pACPs, a panel of 16 cancer cell lines was treated, including human CRC cell lines (HT29, Caco‐2, HCT116). Details of the cell lines used, respective media, and culture conditions were presented in Table S1 (Supporting Information). Once the cells reached 60% confluence, it was incubated with each candidate peptide at a concentration of 25 µM pACPs for 24 h. Concurrently, the complete medium was replaced with a maintenance medium containing only 1% FBS. Subsequently, the viability of each cell line using the MTT Cell Proliferation and Cytotoxicity Assay Kit according to the manufacturer's instructions was assessed. […] For the CRC cell line CT26, it was calculated the CC50 value using two peptides (pACP1780 and pACP2283) with relevant data presented in Table S6 (Supporting Information). The calculation was performed using an online tool: https://www.aatbio.com/tools/ic50‐calculator.

BT474 = assay: MTT primary screening of anticancer activity, BT474; assay type: cell-based
Text: as §1, §2

Hela = assay: MTT primary screening of anticancer activity, Hela; assay type: cell-based, Human
Text: as §1, §2

Caco2 = assay: MTT primary screening of anticancer activity, Caco2; assay type: cell-based, Human
Text: as §1, §2

MDA-MB-453 = assay: MTT primary screening of anticancer activity, MDA-MB-453; assay type: cell-based
Text: as §1, §2

HCT116 = assay: MTT primary screening of anticancer activity, HCT116; assay type: cell-based, Human
Text: as §1, §2

MDA-MB-231 = assay: MTT primary screening of anticancer activity, MDA-MB-231; assay type: cell-based
Text: as §1, §2

T47D = assay: MTT primary screening of anticancer activity, T47D; assay type: cell-based
Text: as §1, §2

MCF7 = assay: MTT primary screening of anticancer activity, MCF7; assay type: cell-based
Text: as §1, §2

CT26 = assay: MTT primary screening of anticancer activity, CT26; assay type: cell-based, Murine
Text: as §1, §2

LCC = assay: MTT primary screening of anticancer activity, LCC; assay type: cell-based
Text: as §1, §2

MDA-MB-468 = assay: MTT primary screening of anticancer activity, MDA-MB-468; assay type: cell-based
Text: as §1, §2

HT29 = assay: MTT primary screening of anticancer activity, HT29; assay type: cell-based, Human
Text: as §1, §2

SK-BR-3 = assay: MTT primary screening of anticancer activity, SK-BR-3; assay type: cell-based
Text: as §1, §2

EFM192A = assay: MTT primary screening of anticancer activity, EFM192A; assay type: cell-based
Text: as §1, §2

B16 = assay: MTT primary screening of anticancer activity, B16; assay type: cell-based, Mouse
Text: as §1, §2

Row | Sequence | Survival rate of cancer cells in primary screening (MDA-MB-436) | Survival rate of cancer cells in primary screening (BT474) | Survival rate of cancer cells in primary screening (Hela) | Survival rate of cancer cells in primary screening (Caco2) | Survival rate of cancer cells in primary screening (MDA-MB-453) | Survival rate of cancer cells in primary screening (HCT116) | Survival rate of cancer cells in primary screening (MDA-MB-231) | Survival rate of cancer cells in primary screening (T47D) | Survival rate of cancer cells in primary screening (MCF7) | Survival rate of cancer cells in primary screening (CT26) | Survival rate of cancer cells in primary screening (LCC) | Survival rate of cancer cells in primary screening (MDA-MB-468) | Survival rate of cancer cells in primary screening (HT29) | Survival rate of cancer cells in primary screening (SK-BR-3) | Survival rate of cancer cells in primary screening (EFM192A) | Survival rate of cancer cells in primary screening (B16)
1 | AAGVSIEIHISLTLFTQVKCVARSQCAAEGAGLRHIKVAALQSCSRRRAH [pACP2] | 1.00 | 1.00 | 1.00 | 1.00 | 1.00 | 1.00 | 1.00 | 0.71 | 1.00 | 1.00 | 1.00 | 1.00 | 1.00 | 1.00 | 1.00 | 1.00
2 | CRLCTHGNVSACVLGKNAVFSVSAHNSDCPQPTCDFSSPLEECLESS [pACP177] | 1.00 | 1.00 | 1.00 | 1.00 | 1.00 | 1.00 | 1.00 | 0.59 | 1.00 | 1.00 | 1.00 | 1.00 | 1.00 | 1.00 | 1.00 | 0.73
3 | DRGERVAHGLDLLDGVVAEGVAAKGDDNTIGLAKRLRHCWNPFCKRPTTH [pACP253] | 1.00 | 1.00 | 1.00 | 1.00 | 1.00 | 1.00 | 1.00 | 0.70 | 1.00 | 1.00 | 1.00 | 0.76 | 1.00 | 1.00 | 1.00 | 1.00
4 | DSYGNRTEIERKIWRRYPCGYSCGTGEVKCDKEEWKKEYW [pACP264] | 1.00 | 1.00 | 1.00 | 1.00 | 1.00 | 1.00 | 1.00 | 0.70 | 0.72 | 1.00 | 1.00 | 1.00 | 1.00 | 1.00 | 1.00 | 0.73
5 | ERRVGYSWYGTWGNKVLKKYPEWLRRLTEKK [pACP341] | 1.00 | 0.62 | 1.00 | 1.00 | 1.00 | 1.00 | 1.00 | 1.00 | 0.66 | 0.60 | 1.00 | 0.74 | 1.00 | 1.00 | 1.00 | 0.74
6 | GLTSESVKSRCVKCLLYIKKSGATHDDNALHRTYCRNNCYRL [pACP550] | 1.00 | 1.00 | 1.00 | 1.00 | 1.00 | 1.00 | 1.00 | 1.00 | 1.00 | 1.00 | 1.00 | 1.00 | 1.00 | 1.00 | 1.00 | 0.78
7 | GNPAKQEIKVPGALGKGSCVQSGAGVGPRCRVPCGPLSGGMALFCYE [pACP555] | 1.00 | 1.00 | 1.00 | 1.00 | 1.00 | 1.00 | 1.00 | 0.74 | 1.00 | 1.00 | 1.00 | 1.00 | 1.00 | 1.00 | 1.00 | 0.75
